Experiments:
[1] = tested on: MDA-MB-231 breast cancer cells; test: MDA-MB-231 cell growth inhibition / cytotoxicity assay, incl. pH 6.2 vs pH 7.4; conditions: for cell growth inhibitory activity / pH-dependent cytotoxicity: MDA-MB-231 cells; for cell growth inhibitory activity: FIG. 3 legend; for IC50: Homo sapiens; for pH-dependent cytotoxicity: pH 6.2 over pH 7.4
[2] = tested on: EMT-6 cells; test: EMT-6 cytotoxicity at pH 6.2 vs pH 7.4; type: cell-based

| Compound | cell growth inhibitory activity [1] | IC50 ([1]; MDA-MB-231, pH 6.2) [µM] | IC50 ([1]; MDA-MB-231, pH 7.4) [µM] | pH-dependent cytotoxicity [1] | IC50 ([2]; Mus musculus, EMT6, tumor pH 6.2) [µM] | toxicity in this assay ([2]; normal physiological pH 7.4) |
| --- | --- | --- | --- | --- | --- | --- |
| O=P1(N(CCCl)CCCl)NCCCO1 (centres unmarked) [Cyclophosphamide, reference compound] | remains inactive |  |  |  |  |  |
| NP(=O)(OCCSSCCCc1c(F)c(F)c(O)c(F)c1F)N(CCCl)CCCl (centres unmarked) [YU252213] | shows cell growth inhibitory activity | 41.4 | > 100 | preferential cytotoxicity in acidic conditions |  |  |
| O=C(Nc1ccc(N(CCCl)CCCl)cc1)OCCSSCCCc1c(F)c(F)c(O)c(F)c1F [YU252353] |  |  |  | preferential cytotoxicity in acidic conditions | 28.7 | no detectable toxicity |

From US20250228950A1 (priority 2017, published 2025)
